Laboratory results: paper PMC4643674 (Journal of medicinal chemistry, 2013)

Tests used:
P-gp (MDR1) = test: MDR1-MDCK permeability assay; format: in vitro ADME, canine; details: dog; for Papp B→A at 120 min, 5 µM / Papp A→B at 120 min, 5 µM: MDCK-MDR1, pH 7.4, Papp; for recovery at 120 min, 5 µM: MDCK-MDR1, pH 7.4, Recovery (%)
plasma stability, mouse = format: in vitro ADME; details: two-hour time-course, Figure S2
[1] = human liver microsomal stability; format: in vitro ADME
GluN1/GluN2D [2] = target: GluN1/GluN2D (Rattus norvegicus, UniProt P35439+Q62645); format: cell-based
GluN1/GluN2D (Rattus norvegicus, UniProt P35439+Q62645), sequence (Q62645 28-1323, other chains not shown): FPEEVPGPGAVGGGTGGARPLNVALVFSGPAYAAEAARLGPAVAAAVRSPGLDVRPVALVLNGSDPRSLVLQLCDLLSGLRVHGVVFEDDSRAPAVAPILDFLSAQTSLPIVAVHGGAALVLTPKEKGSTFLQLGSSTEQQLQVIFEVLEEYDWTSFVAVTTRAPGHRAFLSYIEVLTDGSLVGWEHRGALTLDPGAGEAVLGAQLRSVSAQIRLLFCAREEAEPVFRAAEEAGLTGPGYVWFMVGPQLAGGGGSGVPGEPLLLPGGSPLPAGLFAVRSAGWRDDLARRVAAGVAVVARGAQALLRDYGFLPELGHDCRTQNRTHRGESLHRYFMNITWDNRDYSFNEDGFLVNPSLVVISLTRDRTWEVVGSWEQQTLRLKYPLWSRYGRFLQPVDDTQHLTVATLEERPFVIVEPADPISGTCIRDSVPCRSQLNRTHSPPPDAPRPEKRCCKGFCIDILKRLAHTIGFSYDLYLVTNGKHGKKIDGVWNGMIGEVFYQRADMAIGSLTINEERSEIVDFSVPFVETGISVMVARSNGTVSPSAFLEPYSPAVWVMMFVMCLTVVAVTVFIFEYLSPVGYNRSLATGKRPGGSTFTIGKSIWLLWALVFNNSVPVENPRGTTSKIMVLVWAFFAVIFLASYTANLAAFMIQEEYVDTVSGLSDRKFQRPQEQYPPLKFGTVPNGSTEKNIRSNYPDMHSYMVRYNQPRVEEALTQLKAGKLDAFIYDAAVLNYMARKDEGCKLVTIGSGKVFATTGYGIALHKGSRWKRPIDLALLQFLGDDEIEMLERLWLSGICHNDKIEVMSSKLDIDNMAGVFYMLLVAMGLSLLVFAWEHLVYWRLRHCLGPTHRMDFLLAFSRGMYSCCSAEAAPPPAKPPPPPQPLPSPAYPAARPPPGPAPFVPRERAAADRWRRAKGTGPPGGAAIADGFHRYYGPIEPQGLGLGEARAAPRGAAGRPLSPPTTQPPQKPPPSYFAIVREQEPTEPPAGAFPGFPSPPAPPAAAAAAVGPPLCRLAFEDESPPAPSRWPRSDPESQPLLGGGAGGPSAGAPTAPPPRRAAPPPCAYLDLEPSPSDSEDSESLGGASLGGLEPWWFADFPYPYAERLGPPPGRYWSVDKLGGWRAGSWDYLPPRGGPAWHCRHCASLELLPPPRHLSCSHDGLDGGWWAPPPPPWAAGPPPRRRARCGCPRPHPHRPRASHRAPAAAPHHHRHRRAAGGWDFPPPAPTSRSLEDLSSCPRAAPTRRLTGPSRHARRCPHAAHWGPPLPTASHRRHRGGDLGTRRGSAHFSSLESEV

GluN1/GluN2B = GluN1/GluN2B (Rattus norvegicus, UniProt P35439+Q00960); format: cell-based
GluN1/GluN2B, sequence (Q00960 27-1482, other chains not shown): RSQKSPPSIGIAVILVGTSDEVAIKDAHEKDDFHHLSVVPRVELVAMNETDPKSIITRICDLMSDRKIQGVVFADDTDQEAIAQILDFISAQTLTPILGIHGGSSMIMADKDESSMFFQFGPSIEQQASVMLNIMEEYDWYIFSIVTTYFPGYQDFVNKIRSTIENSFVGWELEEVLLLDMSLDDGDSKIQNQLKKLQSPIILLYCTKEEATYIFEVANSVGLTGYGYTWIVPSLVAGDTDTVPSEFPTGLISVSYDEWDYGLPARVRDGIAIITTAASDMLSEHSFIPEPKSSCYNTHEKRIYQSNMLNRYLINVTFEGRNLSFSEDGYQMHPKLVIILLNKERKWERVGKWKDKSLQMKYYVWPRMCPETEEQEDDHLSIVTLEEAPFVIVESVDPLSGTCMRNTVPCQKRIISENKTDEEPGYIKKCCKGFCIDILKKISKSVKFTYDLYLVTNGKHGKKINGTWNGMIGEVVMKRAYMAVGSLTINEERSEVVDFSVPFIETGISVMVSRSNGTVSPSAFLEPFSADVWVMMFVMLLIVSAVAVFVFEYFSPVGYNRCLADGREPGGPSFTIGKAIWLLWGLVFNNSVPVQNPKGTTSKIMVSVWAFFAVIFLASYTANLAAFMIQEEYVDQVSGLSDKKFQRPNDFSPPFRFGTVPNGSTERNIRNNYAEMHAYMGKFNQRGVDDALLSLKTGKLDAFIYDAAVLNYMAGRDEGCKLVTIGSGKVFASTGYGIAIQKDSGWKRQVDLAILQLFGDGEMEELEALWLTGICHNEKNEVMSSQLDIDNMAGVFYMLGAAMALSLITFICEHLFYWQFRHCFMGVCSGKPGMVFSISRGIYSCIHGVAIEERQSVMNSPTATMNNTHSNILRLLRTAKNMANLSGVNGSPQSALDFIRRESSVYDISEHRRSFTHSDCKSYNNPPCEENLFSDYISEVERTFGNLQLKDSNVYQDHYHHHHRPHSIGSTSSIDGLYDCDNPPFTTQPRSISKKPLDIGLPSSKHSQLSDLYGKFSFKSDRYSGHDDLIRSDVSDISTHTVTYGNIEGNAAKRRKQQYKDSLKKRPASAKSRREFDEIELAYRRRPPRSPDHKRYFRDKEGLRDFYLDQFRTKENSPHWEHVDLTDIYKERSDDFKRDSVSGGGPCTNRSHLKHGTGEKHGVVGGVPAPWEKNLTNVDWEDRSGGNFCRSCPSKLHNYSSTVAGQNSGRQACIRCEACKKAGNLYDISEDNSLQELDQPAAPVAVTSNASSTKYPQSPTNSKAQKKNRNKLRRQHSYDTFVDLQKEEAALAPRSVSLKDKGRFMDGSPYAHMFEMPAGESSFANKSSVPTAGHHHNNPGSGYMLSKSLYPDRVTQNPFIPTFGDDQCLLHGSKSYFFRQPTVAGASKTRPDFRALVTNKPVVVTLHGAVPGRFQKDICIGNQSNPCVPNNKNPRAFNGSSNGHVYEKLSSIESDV

plasma stability, rat = format: in vitro ADME; details: two-hour time-course, Figure S2
GluN1/GluN2A = GluN1/GluN2A (Rattus norvegicus, UniProt P35439+Q00959); format: cell-based
GluN1/GluN2C = GluN1/GluN2C (Rattus norvegicus, UniProt P35439+Q00961); format: cell-based
GluN1/GluN2C, sequence (Q00961 20-1237, other chains not shown): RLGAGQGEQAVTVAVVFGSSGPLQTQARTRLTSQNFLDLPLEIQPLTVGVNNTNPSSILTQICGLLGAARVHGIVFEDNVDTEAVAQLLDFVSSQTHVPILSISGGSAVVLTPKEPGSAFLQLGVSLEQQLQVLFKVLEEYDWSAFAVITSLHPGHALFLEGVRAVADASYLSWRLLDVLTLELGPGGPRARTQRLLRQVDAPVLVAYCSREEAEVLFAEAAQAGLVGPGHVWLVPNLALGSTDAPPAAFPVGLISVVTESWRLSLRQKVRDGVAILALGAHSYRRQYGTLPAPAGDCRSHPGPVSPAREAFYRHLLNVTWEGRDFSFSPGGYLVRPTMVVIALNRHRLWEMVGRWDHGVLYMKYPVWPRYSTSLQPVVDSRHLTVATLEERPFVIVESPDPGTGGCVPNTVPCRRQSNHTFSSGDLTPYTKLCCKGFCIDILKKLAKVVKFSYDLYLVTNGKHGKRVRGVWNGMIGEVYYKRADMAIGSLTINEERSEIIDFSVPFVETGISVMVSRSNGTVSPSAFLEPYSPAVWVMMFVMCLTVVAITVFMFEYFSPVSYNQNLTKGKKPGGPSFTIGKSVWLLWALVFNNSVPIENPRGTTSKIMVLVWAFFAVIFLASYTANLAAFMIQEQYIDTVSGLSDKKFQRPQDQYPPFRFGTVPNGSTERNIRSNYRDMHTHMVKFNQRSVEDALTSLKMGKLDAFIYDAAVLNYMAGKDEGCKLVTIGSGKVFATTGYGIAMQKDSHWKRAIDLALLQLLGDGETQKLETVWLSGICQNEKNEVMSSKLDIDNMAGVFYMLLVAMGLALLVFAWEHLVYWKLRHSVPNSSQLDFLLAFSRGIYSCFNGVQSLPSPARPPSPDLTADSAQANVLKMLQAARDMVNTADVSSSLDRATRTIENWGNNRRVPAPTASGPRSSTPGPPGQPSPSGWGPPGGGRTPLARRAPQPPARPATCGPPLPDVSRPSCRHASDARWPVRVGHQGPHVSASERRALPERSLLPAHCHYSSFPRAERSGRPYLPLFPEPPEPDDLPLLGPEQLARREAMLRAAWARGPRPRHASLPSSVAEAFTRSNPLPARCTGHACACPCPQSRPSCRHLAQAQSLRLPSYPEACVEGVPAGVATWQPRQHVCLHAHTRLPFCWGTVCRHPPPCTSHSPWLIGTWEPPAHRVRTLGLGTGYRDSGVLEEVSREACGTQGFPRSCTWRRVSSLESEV

plasma stability, human = format: in vitro ADME; details: two-hour time-course, Figure S2
NMDA receptor subtypes = test: two-electrode voltage clamp, activity statements without named subtype; format: cell-based; details: receptor subtype not named
MDR1-MDCK = MDR1-MDCK permeability assay; format: in vitro ADME, canine; details: A-to-B; 5 µM; 120 minutes
[3] = test system: GluN2D receptor mutants (Q801Y, L705F and A752V); test: inhibition of mutant GluN2D receptors; format: cell-based; details: mutants vs wild type GluN2D; Figure S1
[4] = test system: 42 different ion channels, G-protein coupled receptors, and transporters; test: NIMH PDSP primary binding assay; details: 5 µM compound
GluK1 = GluK1 (Rattus norvegicus, UniProt P22756); test: off-target two-electrode voltage clamp, GluK1; format: cell-based; details: read-out: ITEST / ICONTROL (mean ± SEM, %)
GluA3 = GluA3 (Rattus norvegicus, UniProt P19492); test: off-target two-electrode voltage clamp, GluA3; format: cell-based; details: read-out: ITEST / ICONTROL (mean ± SEM, %)
GluA3, sequence (P19492 23-888): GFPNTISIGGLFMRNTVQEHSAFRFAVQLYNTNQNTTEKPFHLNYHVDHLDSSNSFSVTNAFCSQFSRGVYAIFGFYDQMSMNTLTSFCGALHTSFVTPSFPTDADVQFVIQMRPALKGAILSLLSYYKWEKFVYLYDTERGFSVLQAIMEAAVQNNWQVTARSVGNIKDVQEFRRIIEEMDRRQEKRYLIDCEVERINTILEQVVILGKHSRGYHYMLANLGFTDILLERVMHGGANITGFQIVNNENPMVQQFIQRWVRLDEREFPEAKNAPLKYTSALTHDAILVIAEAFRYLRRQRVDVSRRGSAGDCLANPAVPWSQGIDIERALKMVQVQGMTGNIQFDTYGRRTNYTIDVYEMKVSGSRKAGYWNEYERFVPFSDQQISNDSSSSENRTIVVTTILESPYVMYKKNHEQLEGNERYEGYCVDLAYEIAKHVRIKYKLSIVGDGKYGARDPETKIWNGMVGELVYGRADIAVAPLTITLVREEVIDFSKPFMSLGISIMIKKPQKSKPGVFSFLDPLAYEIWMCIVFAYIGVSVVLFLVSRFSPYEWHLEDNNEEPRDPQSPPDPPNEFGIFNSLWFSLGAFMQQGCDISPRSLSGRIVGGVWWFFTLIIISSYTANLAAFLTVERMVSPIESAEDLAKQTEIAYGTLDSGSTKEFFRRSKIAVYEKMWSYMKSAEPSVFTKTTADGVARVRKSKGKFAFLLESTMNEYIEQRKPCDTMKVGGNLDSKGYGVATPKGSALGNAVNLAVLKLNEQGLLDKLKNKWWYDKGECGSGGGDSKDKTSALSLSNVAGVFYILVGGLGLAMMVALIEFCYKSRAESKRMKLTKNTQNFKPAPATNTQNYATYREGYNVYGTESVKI

GluN1/GluN2D [5] = target: GluN1/GluN2D (Rattus norvegicus, UniProt Q62645); format: cell-based
GluN1/GluN2D (Rattus norvegicus, UniProt Q62645), sequence (Q62645 28-1323, other chains not shown): as the sequence (Q62645 28-1323, other chains not shown) above

[6] = human, liver microsomes, pH 7.4

| Papp A→B at 120 min, 5 µM (P-gp (MDR1); determination 1, A-to-B) [×10⁻⁶ cm/s] | Papp B→A at 120 min, 5 µM (P-gp (MDR1); determination 1, B-to-A) [×10⁻⁶ cm/s] | Papp A→B at 120 min, 5 µM (P-gp (MDR1); determination 2, A-to-B) [×10⁻⁶ cm/s] | Papp B→A at 120 min, 5 µM (P-gp (MDR1); determination 2, B-to-A) [×10⁻⁶ cm/s] | plasma stability (plasma stability, mouse) | microsomal CLint at 1 µM [1, 6] [µL/min/mg] | remaining at 0 h, 1 µM [1, 6] [%] | plasma stability (plasma stability, rat) | plasma stability (plasma stability, human) | effect in primary binding assay [4] | Structure (SMILES) | further results |
| --- | --- | --- | --- | --- | --- | --- | --- | --- | --- | --- | --- |
| 2.45 | 66.2 | 2.48 | 62.7 | minimal degradation | 110 | 100 | minimal degradation | minimal degradation |  | O=C(CCCO)N1N=C(c2c(-c3ccc(Cl)cc3)c3ccccc3[nH]c2=O)CC1c1ccc(Cl)cc1 (stereo not drawn) [Compound 64, 4-(4-Chlorophenyl)-3-[5-(4-chlorophenyl)-1-(4-hydroxybutanoyl)-4,5-dihydro-1H-pyrazol-3-yl]quinolin-2(1H)-one] | efflux ratio at 120 min, 5 µM (P-gp (MDR1); MDCK-MDR1, pH 7.4): 26; Papp B→A at 120 min, 5 µM (P-gp (MDR1); Avg, B-to-A): 64.5 ×10⁻⁶ cm/s; recovery at 120 min, 5 µM (P-gp (MDR1); A-to-B): 43%; recovery at 120 min, 5 µM (P-gp (MDR1); B-to-A): 73%; half-life at 1 µM [1, 6]: 13 min; remaining at 0.5 h, 1 µM [1, 6]: 24%; remaining at 1 h, 1 µM [1, 6]: 6.5%; IC50 (GluN1/GluN2D [2]): 0.69 µM; IC50 (GluN1/GluN2B): 33 µM; IC50 (GluN1/GluN2A): 62 µM; IC50 (GluN1/GluN2C): 1.7 µM |
| 4.51 | 9.32 | 3.24 | 9.72 |  | 40 | 100 |  |  |  | O=C(CCCF)N1N=C(c2c(-c3ccc(Cl)cc3)c3ccccc3[nH]c2=O)CC1c1ccc(Cl)cc1 (stereo not drawn) [Compound 68, 4-(4-Chlorophenyl)-3-[5-(4-chlorophenyl)-1-(4-fluorobutanoyl)-4,5-dihydro-1H-pyrazol-3-yl]quinolin-2(1H)-one] | activity (in words) (NMDA receptor subtypes): inactive |
|  | 33.4 |  | 17.9 | minimal degradation | < 20 |  | minimal degradation | minimal degradation | minimal effect | O=C(O)CCC(=O)N1N=C(c2c(-c3ccc(Cl)cc3)c3ccccc3[nH]c2=O)CC1c1ccc(Cl)cc1 (stereo not drawn) [Compound 26, 4-{5-(4-Chlorophenyl)-3-[4-(4-chlorophenyl)-2-oxo-1,2-dihydroquinolin-3-yl]-4,5-dihydro-1H-pyrazol-1-yl}-4-oxobutanoic acid] | Papp, Avg (MDR1-MDCK): 0.47 10^−6cm/s; effect of mutations on degree of inhibition [3]: significantly reduced the degree of inhibition; degradation in human liver microsomes (in words) ([1]; over the 60 minute assay): minimal degradation |
|  |  |  |  | minimal degradation |  |  | minimal degradation | minimal degradation | minimal effect | O=C(O)/C=C/C(=O)N1N=C(c2c(-c3ccc(Br)cc3)c3ccccc3[nH]c2=O)CC1c1ccc(Cl)cc1 (stereo not drawn) [Compound 58, (E)-4-{3-[4-(4-Bromophenyl)-2-oxo-1,2-dihydroquinolin-3-yl]-5-(4-chlorophenyl)-4,5-dihydro-1H-pyrazol-1-yl}-4-oxobut-2-enoic acid] | remaining activity at 3 µM (GluK1): 100 ± 4.4%; remaining activity at 3 µM (GluA3): 100 ± 1.1% |
|  |  |  |  |  |  |  |  |  |  | O=C(O)CCC(=O)N1N=C(c2c(-c3ccc(Cl)cc3)c3ccccc3[nH]c2=O)C[C@H]1c1ccc(Cl)cc1 [Compound 69] | selectivity over other NMDA receptor subunits (GluN1/GluN2D [5]; GluN2D/GluN2C vs other subunits): over 70 fold; fold more potent at GluN2D-containing receptors than the R-enantiomer, 70 (GluN1/GluN2D [5]; S-enantiomer vs R-enantiomer): 11 fold |
